These are literature values, as cited in patent publication US6723737B1 (priority 1999, dated 2004).

Data set [1] concerns young men. The note with it: after caffeine ingestion, statistically significant.
The subject of data set [2] is genetically obese experimental animals.

Take `Cn1c(=O)c2c(ncn2C)n(C)c1=O` [caffeine, 1,3,7-trimethylxanthine]: in data set [1], the “levels of free fatty acids” value is “increased the levels of free fatty acids”. The weight loss entry in data set [2] was “did not produce weight loss”.
Turning to `Cn1c(=O)c2[nH]cnc2n(C)c1=O` [theophylline, 1,3-dimethylxanthine], the weight loss entry in data set [2] is reported as “did not produce weight loss”.
